Data from US20240156832A1, “METHODS OF METABOLIZING METOPIMAZINE AND ITS SALTS” (Neurogastrx, Inc., priority 2020, published 2024).
Entries after “also recorded” stand apart in the source; their conditions may differ.

Key:
[1] = tested on: human microsomal liver amidase; assay: Incubations with HLM for microsomal hydrolase/amidase activity; assay type: in vitro ADME
Experimental: Incubations with HLM for Microsomal Hydrolase/Amidase Activity Prior to the reaction for amidase activity, the reaction mixture containing KPi buffer (pH 7.4, 8.4, or 9.4) and HLM was pre-incubated at 50° C. for 5 minutes to inactivate CYP and FMO activities in HLM. The mixture was placed on ice to cool down. An aliquot was taken out which was considered as t=0 min incubation. Then 10 μM MPZ was added into the remaining mixture and incubated at 37° C. on an orbital shaker for 60 minutes. A parallel set of incubations was conducted with 10 μM MPZ in the presence at 2 and 16 μM, of BNPP (a known inhibitor of amidase). All reactions were in triplicate. The total percentage of organic solvent in incubation mixture was ≤0.1%. The reactions were terminated by the addition of chilled acetonitrile: methanol, 90:10, (v/v). The samples were vortex-mixed and stored at ≤−70° C. and were subjected analyzed by LC MS/MS.

microsomal FMOs in HLM = assay: Incubation with HLM for FMO (pH 8.4, methimazole, heat); assay type: in vitro ADME, human; conditions: HLM pH 8.4, 1 mM methimazole
Experimental: MPZ, at 1.0 and 10.0 μM, was incubated with HLM or HKM to determine the contribution of microsomal FMOs on the metabolism of MPZ.
A reaction mixture containing KPi buffer (pH 8.4), HLM or HKM (0.5 mg/mL protein) and MPZ (1.0 and 10.0 μM) was pre-incubated for 3-5 minutes at 37° C. The reaction was initiated by the addition of NADPH into the reaction mixture. Reaction was conducted for 0 and 60 min. A positive control (benzydamine, 100 μM) was incubated in duplicate for 0 and 20 minutes. Parallel incubation was conducted by adding 1 mM methimazole, a non-specific FMO inhibitor, under identical conditions. Heat inactivated microsomes (50° C. for at least 5 minutes) was incubated under identical conditions negative control. All other procedures were the same as described previously.

[2] = tested on: cytochrome P450 enzymes in HLM; assay: HLM incubation with CYP inhibitors, with and without NADPH; conditions: peak area ratio, 60 min, ABT 1 mM, quinidine 1 μM
Experimental: Initially, two sets of incubations were conducted with HLM (0.5 mg/mL microsomal protein), 1 and 1011M MPZ, 100 mM KPi buffer (pH 7.4) where one set was in the presence and the other set was in the absence of 1 mM ABT, a non-specific CYP inhibitor for 60 minutes. This allowed the assessment of total CYP contribution for MPZ metabolism. Then, CYP-specific chemical inhibitors were used to assess the contribution of individual major CYP-isoforms where HLM were incubated with 1 or 1011M MPZ in the presence and in the absence of each CYP specific inhibitor at 37° C. for 60 minutes. The following CYP-isoform specific chemical inhibitors were used; furafylline (10 μM), tranylcypromine (10 μM), montelucast (0.5 μM), sulfaphenazole (5 μM), (+) benzylnirvinol (5 μM), quinidine (1 μM) and itraconazole (2.5 μM), for CYP1A2, CYP2B6, CYP2C8, CYP2C9, CYP2C19, CYP2D6 and CYP3A4/5. Parallel incubation with seven CYP specific probe substrates were included in as positive controls. For negative control reaction, MPZ was incubated at 37° C. in duplicate in reaction mixture devoid of NADPH. All other procedures were the same as previously described.

[3] = Experimental: For protein concentration optimization, MPZ at 1 μM was incubated with varying concentration of HLM proteins (0.1, 0.25, 0.5, and 1.0 mg/mL microsomal protein), 100 mM KPi buffer (pH 7.4). After pre-incubation for 3-5 minutes at 37° C., the reaction was initiated by the addition of NADPH (1 mM) for 60 minutes in triplicates.
For incubation time optimization, MPZ at 1 μM was incubated with pooled HLM (0.5 mg/mL microsomal protein) and 100 mM KPi buffer (pH 7.4). After pre-incubation for) for 3-5 minutes at 37° C., the reaction was initiated by the addition NADPH (1 mM) incubated for 0, 10, 20, 40, 60, and 90 minutes to determine the optimal incubation time (linear range). All metabolic reactions in this study were terminated by the addition of chilled organic solvent (acetonitrile:ethanol 90:10, v/v) containing internal standards, unless otherwise indicated.
LC separation conditions were developed for MPZ and its metabolites (MPZA and MPZS), 7 hydroxycoumarin, each metabolite of CYP probe substrate, benzydamine N oxide, and phthalazine. The LC MS/MS system consisted of a Shimadzu Nexera X2 LC-30 UPLC system (Shimadzu Corporation, Kyoto, Japan), and an API 4000 triple quadrupole mass spectrometer (SCIEX, Framingham, MA) was used for analysis. All analytes were analyzed using electrospray ionization (ESI) in positive ion mode except for 7-EC, which used negative ion mode. The LC-MS/MS system was controlled by Analyst software (version 1.6.1, SCIEX, Framingham, MA).
For each analytical method, a calibration curve was generated for the quantification of MPZ and its two metabolites (MPZA and MPZS). […] PAR was also used for all positive control compounds.
% parent remaining=(mean concentration or PAR at each sampling time point/mean concentration or PAR of time zero)×100

[4] = Incubation of MPZ in human liver S9; assay type: in vitro ADME; conditions: human liver S9, 60-minute incubation
Experimental: Initial experiment was conducted with S9 fractions from liver and intestine to assess the role of liver and intestinal enzymes in the metabolism of MPZ. The reaction mixture contained 2.5 μM MPZ, pooled human liver or intestine S9 fraction (1 mg/mL S9 protein), 100 mM KPi buffer (pH 7.4). The reaction mixture was pre-incubated for 3-5 min at 37° C. in a humidified incubator filled with 5% CO2 followed by the addition of NADPH (1 mM) to initiate the reaction. The reaction was incubated for 0 and 60 min. The total percentage of organic solvent in incubation mixture was <0.1%. The reactions were terminated by the addition of sample mixture of acetonitrile and ethanol (90:10, v/v). The positive control substrate, 7-EC, was incubated in triplicate in an identical manner as MPZ for S9 fractions.

Q: Which results are given for `O=[N+]([O-])c1ccc(OP(=O)(O)Oc2ccc([N+](=O)[O-])cc2)cc1` [BNPP, bis(4-nitrophenyl) phosphate]?
A: activity (MPZA formation) inhibited ([1]; BNPP 2 μM, HLM, 10 μM MPZ, even at the highest pH): at least 97%; MPZA formation inhibited ([1]; BNPP 16 μM, HLM, 10 μM MPZ, all three pH values): > 99%; inhibition of MPZA formation in HLM (in words) ([1]; BNPP 2 and 16 μM, pH 7.4, 8.4, 9.4): dramatically inhibited the formation of MPZA in HLM; also recorded: effectively inhibits formation of MPZA under all conditions

Q: For `Cn1cc[nH]c1=S` [methimazole, reference compound], which “effect of FMO inhibitor on MPZA formation” value (microsomal FMOs in HLM) is on record?
A: The value was “not inhibited”.

Q: Which “effect of CYP inhibitor on MPZH formation” value [2] does the source give for `C=C[C@H]1C[N@@]2CC[C@H]1C[C@@H]2[C@@H](O)c1ccnc2ccc(OC)cc12` [quinidine, reference compound] here?
A: Its value is “inhibited formation of MPZH”.

Q: With metopimazine sulfoxide [MPZS] as the molecule, how does the “Peak Area at Time 0” value [3] read?
A: The value was 0.

Q: And the “Peak Area at Time 90 min” value [3]?
A: The value was 59.

Q: What about the metabolites formed [4] of the same molecule?
A: Its metabolites formed is “formed”.
